Data as given in ChEMBL document CHEMBL1201862, “PubChem BioAssay data set” (2004).
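Test compounds were applied to cells in 96-well plates for 48 hours at 5 doses. At the GI50, growth is halved.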 Active and inactive are the calls of the source. Cut-off read from the data, not from the text of the source: active = GI50 up to about 1.1 µM and inactive = higher.

What was measured:
Test in all cases: NCI tumour cell line growth inhibition, 48 h
[1] = tested on: A498
[2] = tested on: COLO 205
[3] = tested on: HCT-116
[4] = tested on: HCT-15
[5] = tested on: HOP-62
[6] = tested on: Hs-578T
[7] = tested on: LOX IMVI
[8] = tested on: MDA-N
[9] = tested on: NCI-H226
[10] = tested on: NCI/ADR-RES
[11] = tested on: OVCAR-5
[12] = tested on: PC-3
[13] = tested on: SF-268
[14] = tested on: SK-MEL-5
[15] = tested on: SK-OV-3
[16] = tested on: SNB-19
[17] = tested on: SNB-75
[18] = tested on: UO-31
[19] = tested on: HL-60
[20] = tested on: MCF7

SMILES	GI50 [1]	GI50 [2]	GI50 [3]	GI50 [4]	GI50 [5]	GI50 [6]	GI50 [7]	GI50 [8]	GI50 [9]	GI50 [10]	GI50 [11]	GI50 [12]	GI50 [13]	GI50 [14]	GI50 [15]	GI50 [16]	GI50 [17]	GI50 [18]	GI50 [19]	GI50 [20]
CCOC(=O)C(C)c1nc2c(Cl)c3ncccc3cc2[nH]c1=O (stereo unspecified)	> 100 µM (inactive)	> 100 µM (inactive)	76.9 µM (inactive)	57.3 µM	34.1 µM (inactive)	23.2 µM (inactive)	> 100 µM (inactive)	> 100 µM (inactive)	53.3 µM (inactive)	29.9 µM (inactive)	> 100 µM (inactive)	40.7 µM (inactive)	41 µM (inactive)	30.5 µM (inactive)	> 100 µM (inactive)	> 100 µM (inactive)	62.2 µM (inactive)	23.7 µM (inactive)	–	–
O=C(C(Cl)Cl)N(O)c1ccccc1OCc1ccccc1	–	17 µM (inactive)	63.8 µM (inactive)	44.2 µM	> 100 µM (inactive)	19.5 µM (inactive)	43.9 µM (inactive)	–	78.3 µM (inactive)	22.8 µM (inactive)	> 100 µM (inactive)	27.8 µM (inactive)	73.3 µM (inactive)	–	> 100 µM (inactive)	57.7 µM (inactive)	29.4 µM (inactive)	36.9 µM (inactive)	27.6 µM (inactive)	56.5 µM (inactive)
Cc1ccc(-c2[nH]c(=O)n(C3OC(CO)C(O)C(O)C3O)c(=O)c2C#N)cc1 (stereo unspecified)	> 100 µM (inactive)	> 100 µM (inactive)	> 100 µM (inactive)	> 100 µM	> 100 µM (inactive)	> 100 µM (inactive)	–	–	> 100 µM (inactive)	> 100 µM (inactive)	> 100 µM (inactive)	> 100 µM (inactive)	> 100 µM (inactive)	> 100 µM (inactive)	> 100 µM (inactive)	> 100 µM (inactive)	> 100 µM (inactive)	> 100 µM (inactive)	> 100 µM (inactive)	> 100 µM (inactive)
O=c1cccc(Cl)[nH]1	–	> 100 µM (inactive)	> 100 µM (inactive)	> 100 µM	> 100 µM (inactive)	> 100 µM (inactive)	> 100 µM (inactive)	–	> 100 µM (inactive)	> 100 µM (inactive)	> 100 µM (inactive)	> 100 µM (inactive)	> 100 µM (inactive)	27 µM (inactive)	> 100 µM (inactive)	> 100 µM (inactive)	> 100 µM (inactive)	> 100 µM (inactive)	–	> 100 µM (inactive)
CCCCOC(=O)CNC(=O)OC/C=C/C#CC#C/C=C/COC(=O)NCC(=O)OCCCC	> 10 µM (inactive)	> 10 µM (inactive)	> 10 µM (inactive)	> 10 µM	> 10 µM (inactive)	–	> 10 µM (inactive)	–	> 10 µM (inactive)	–	> 10 µM (inactive)	–	> 10 µM (inactive)	> 10 µM (inactive)	> 10 µM (inactive)	> 10 µM (inactive)	27 µM (inactive)	> 10 µM (inactive)	> 10 µM (inactive)	–
CCNC(=O)COc1ccc(Cl)c(C)c1	> 100 µM (inactive)	> 100 µM (inactive)	> 100 µM (inactive)	> 100 µM	> 100 µM (inactive)	–	> 100 µM (inactive)	–	> 100 µM (inactive)	–	> 100 µM (inactive)	–	> 100 µM (inactive)	> 100 µM (inactive)	> 100 µM (inactive)	> 100 µM (inactive)	86.1 µM (inactive)	> 100 µM (inactive)	> 100 µM (inactive)	–
CC#CCCCC1(C)CCCNC1=S (stereo unspecified)	–	–	–	> 10 µM	–	> 10 µM (inactive)	> 10 µM (inactive)	–	–	> 10 µM (inactive)	> 10 µM (inactive)	> 10 µM (inactive)	> 10 µM (inactive)	> 10 µM (inactive)	> 10 µM (inactive)	> 10 µM (inactive)	> 10 µM (inactive)	> 10 µM (inactive)	> 10 µM (inactive)	> 10 µM (inactive)
OC(c1ccccc1)C(F)(F)c1nc2ccccc2o1 (stereo unspecified)	14.7 µM (inactive)	> 100 µM (inactive)	> 100 µM (inactive)	> 100 µM	> 100 µM (inactive)	> 100 µM (inactive)	> 100 µM (inactive)	–	> 100 µM (inactive)	89.3 µM (inactive)	–	> 100 µM (inactive)	> 100 µM (inactive)	77.1 µM (inactive)	> 100 µM (inactive)	> 100 µM (inactive)	> 100 µM (inactive)	> 100 µM (inactive)	> 100 µM (inactive)	> 100 µM (inactive)
O=C1/C(=C/C=C/c2ccccc2)CCC1CNc1ccccc1 (stereo unspecified)	> 27 µM (inactive)	28.9 µM (inactive)	17.9 µM (inactive)	18.4 µM	> 100 µM (inactive)	> 67 µM (inactive)	18.6 µM (inactive)	–	> 100 µM (inactive)	96.8 µM (inactive)	> 65.8 µM (inactive)	36 µM (inactive)	36.7 µM (inactive)	67 µM (inactive)	> 100 µM (inactive)	> 55 µM (inactive)	> 100 µM (inactive)	59.8 µM (inactive)	4.07 µM (inactive)	6.49 µM (inactive)
